pEC50, pIC50: −log10 of the molar value.
Experiments:
Assay type in all cases: cell-based
human eosinophils [1] = assay: Eosinophil shape change in human PMNL by flow cytometry (GAFS assay); conditions: for pEC50: human PMNL, chemokines, FIG. 3D; for effect on histamine-induced eosinophil shape change: antagonist 10 μM, 1 μM histamine 10 min
Procedure: PMNL were prepared as described above and cells were resuspended in assay buffer (PBS containing 10 mM Ca^2+ and Mg^2+, 10 mM HEPES, 10 mM glucose, and 0.1% BSA, pH 7.2-7.4). Aliquots of cells (5×10^5 PMNL in 80 μl assay buffer) were pretreated with histamine receptor analogues (diphenhydramine, ranitidine, thioperamide, Compound A or H3 receptor antagonist) for 10 min at room temperature before addition of histamine or chemokines in 1.2-ml polypropylene cluster tubes (Costar, Cambridge, Mass.) in a final volume of 100 μl. The tubes were placed in a 37° C. water bath for 10 min (or as indicated), after which they were transferred to an ice-water bath, and 250 μl of ice-cold fixative (2% paraformaldehyde in PBS) was added to terminate the reaction and to maintain the cell shape change. […] Cell shape change was monitored in forward scatter signals. To identify eosinophils and neutrophils in PMNL, cells were stained on ice for 30 min with saturating concentrations of FITC-conjugated anti-CCR3 or anti-CD16 antibodies, which are specific for eosinophils or neutrophils, respectively. Samples after antibody staining were analyzed in flow cytometry.

[2] = test system: purified human eosinophils; assay: In vitro eosinophil chemotaxis assay (Transwell); conditions: for effect on histamine-induced eosinophil chemotaxis: antagonist 10 μM in both chambers
Procedure: Transwells (Costar, Cambridge, Mass.) with 5 μm pore size were coated with 100 μl of 100 ng/ml human fibronectin (Sigma) for 2 h at room temperature. After removal of excess fibronectin, 600 μl of RPMI-1640 medium containing 0.5% BSA and different concentrations of histamine (0.01-100 μM) was added to the bottom chamber, Eosinophils (2×10^5/well) were added to the top chamber. Histamine receptor analogues (diphenhydramine, ranitidine, thioperamide, Compound A or Compound B) were added to both the top and bottom chambers to a final concentration of 10 μM or at other concentration as stated in figure legends. The plates were incubated for 2 h at 37° C. and the number of cells migrated to the bottom chamber was counted for 1 min using flow cytometer.

human eosinophils [3] = assay: Cell surface expression of adhesion molecules on eosinophils by flow cytometry; conditions: antagonist 10 μM
Procedure: Purified eosinophils were used to study cell surface expression of adhesion molecules. Eosinophils were resuspended in PBS containing 10 mM Ca^2+ and Mg^2+, 10 mM HEPES, 10 mM glucose, and 0.1% BSA, pH 7.2-7.4. Aliquots of cells (5×10^5 PMNL) were pretreated with histamine receptor analogues (as described above) for 10 min before addition of histamine or chemokines in 1.2-ml polypropylene cluster tubes (Costar, Cambridge, Mass.) in a final volume of 100 μl. The tubes were placed in a 37° C. water bath for 10 min (or as indicated), after which they were transferred to an ice-water bath, and 250 μl of ice-cold fixative (0.5% paraformaldehyde in PBS) was added. Samples were then incubated on ice for 30 min with saturating concentration of either FITC or phycoerytherine-conjugated anti-CD11a, anti-CD11b or anti-CD54 antibodies, washed, and then analyzed by flow cytometry.

[4] = test system: eosinophils in human whole blood; assay: Whole blood eosinophil shape change GAFS assay (Example 1A); conditions: FIGS. 9A and 9B
Procedure: Starting materials were obtained as described in the experiments above. Human whole blood samples were used to study eosinophil shape change response. Human blood samples collected from healthy donors were treated with 3.8% tri-sodium citrate as anti-coagulator (or other anti-coagulators) and centrifuges at 300 rpm. The samples were used for experiments within 1 hour. Aliquots of 80 μl whole blood were pretreated with histamine receptor analogues (such as H1 receptor antagonist diphenhydramine, H2 antagonist ranitidine, H4 receptor antagonists thioperamide and Compound A, and H3 receptor antagonist Compound B) for 10 minutes before addition of histamine or chemokines in 1.2-ml polypropylene cluster tubes (Costar, Cambridge, Mass.) in a final volume of 100 μl. The tubes were placed in a 37° C. water bath for 10 min, after which they were transferred to an ice-water bath, and 250 μl of ice-cold fixative (2% paraformaldehyde in PBS or other fixatives) was added to terminate the reaction and to maintain the cell shape change. Red cells were lysed with 3 ml Qiagen lysis solution (Qiagen, Valencia, Calif.) for 10 minutes at 4° C. Leukocytes were recovered by centrifugation at 2000 rpm for 5 minutes, washed once with either PBS containing 10 mM Ca^2+ and Mg^2+, 10 mM HEPES, 10 mM glucose, and 0.1% BSA (for FIGS. 10 and 11) or PBS containing 0.5% BSA and 2 mM EDTA (for other figures), and then resuspended in the same buffer. The cell shape change was analyzed on a FACScan flow cytometer (Becton Dickinson, Mountain View, Calif.). Eosinophils were gated based on their high autofluorescence relative to neutrophils and shape change was monitored in forward scatter signals. Data were acquired for 1500 high-fluorescence eosinophil events. The results are expressed as the percentage increase in FSC compared to unstimulated cells. Results obtained are provided in the Tables I and II, below, which also correspond to FIG. 7 and FIG. 8, respectively.

pEC50 (human eosinophils [1])	Compound	effect on histamine-induced eosinophil shape change (human eosinophils [1])	effect on histamine-induced up-regulation of CD11b/CD18 and CD54 expression (human eosinophils [3])	effect on histamine-induced eosinophil chemotaxis [2]	further results
10.77	eotaxin: chemokine purchased from R&D Systems				
9.69	MCP-3: chemokine purchased from R&D Systems				pEC50 ([2]; Transwell, 2 h): 7.37
	Cc1ccn2cc(-c3ccc(OCCCN4CCCCC4)cc3)nc2c1 [Compound B, 7-methyl-2-[4-(3-piperidin-1-yl-propoxy)-phenyl]-imidazo[1,2-a]pyridine]	did not show any inhibitory effects	ineffective	minimal	pIC50 (human eosinophils [1]; Homo sapiens, Eosinophil, 1 μM histamine, FIG. 4B, read-out: IC50 in blocking 1 μM histamine-induced eosinophil shape change (ineffective up to)): < 4.52
	NC(=NCc1ccc(Cl)cc1)SCCCc1cnc[nH]1 [clobenpropit]				agonist effect on eosinophil shape change (human eosinophils [1]; FIG. 4C): partial shape change; agonist effect on eosinophil shape change in whole blood [4]: mimic histamine in inducing eosinophil shape change
	CN(C)CCOC(c1ccccc1)c1ccccc1 [diphenhydramine]	did not show any inhibitory effects	ineffective	minimal	

— patent publication US20080102476A1, “Analyzing Histamine H4 Receptor-Mediated Effects In Whole Blood” (priority 2003, published 2008)
